Holding throughout (assay): growth of human tumour cells (NCI), 48 h
Test [1] concerns CAKI-1.
Test [2] concerns SF-268.
The test system of test [3] is SK-OV-3.
For test [4], the system named is HOP-62.
For test [5], the system named is A549.
Test [6] deals with HT-29.
Test [7] concerns A498.
Test [8] deals with SW-620.
Test [9] relates to ACHN.
Test [10] concerns NCI-H522.
In test [11] the test system is M14.
For test [12], the system named is SNB-75.
The test system of test [13] is COLO 205.
Test [14] deals with UACC-62.
Test [15] has as its system K562.
Test [16] has as its system OVCAR-5.
In test [17] the test system is LOX IMVI.
For test [18], the system named is RXF 393.

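96-well plates; 48 h exposure; 5 concentrations. Endpoints by linear interpolation between flanking doses. Not reached: highest tested concentration assigned. GI50: concentration for 50% inhibition of growth.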 Active and inactive are the calls of the source. Rule as the data show it: active = GI50 up to about 1.1 µM and inactive = higher.

Consider `Cc1ccc(C(=O)/C=C/c2ccccc2Cl)cc1`, for which the GI50 in [1] is 16.8 µM (inactive); in [2] it was 20.5 µM (inactive); in [3], 39.4 µM (inactive); in [4], 68.5 µM (inactive); in test [5], 33.7 µM (inactive); in test [6], 15.8 µM (inactive). For the same compound, the GI50 in test [7] was 25.4 µM (inactive); in test [8] it was 13.6 µM (inactive); in test [9], 15.9 µM (inactive); in test [10], 14 µM (inactive); in test [11], 17.6 µM (inactive); in test [12], 19.1 µM (inactive). In addition, the GI50 was 24.2 µM (inactive) in test [13], 14.3 µM (inactive) in test [14], 19.7 µM (inactive) in test [15] and 17.1 µM (inactive) in test [16].

Regarding `C/C(CC(=O)CCC(=O)Nc1cccc(C(F)(F)F)c1)=N\NC(=O)NN`, the GI50 in test [1], in test [2], in test [3], in test [4], in [5] and in test [6] was > 100 µM (inactive) each time. In addition, the GI50 in test [7], in test [8], in test [9], in test [10], in test [11] and in [12] was > 100 µM (inactive) in each case. Moreover, the GI50 in test [13], in [14], in test [15] and in test [16] was > 100 µM (inactive) in each case.

Regarding `CC(=O)OC1C=CC2CCN3C(=O)c4cc5c(cc4[C@H]1C23)OCO5` (some centres not stated), the GI50 in [2], in [3], in [17], in test [4], in test [5] and in [6] was > 100 µM (inactive) throughout. In addition, the GI50 in test [18], in test [8], in [9], in test [10], in [11] and in test [12] was > 100 µM (inactive) throughout. For the same compound, the GI50 in test [13], in test [14] and in test [15] was > 100 µM (inactive) each time.

Regarding `CCOc1ccc(NC(=O)C(=O)CC(=O)C2=C(C)Nc3ccccc3S2)cc1`, the GI50 in test [1], in test [2], in [3], in test [17], in [4] and in test [5] was > 50 µM (inactive) in each case. The GI50 in test [6], in [7], in test [18], in [8], in test [9] and in test [10] was > 50 µM (inactive) throughout. Besides, the GI50 in test [11], in test [13], in test [14], in test [15] and in test [16] was > 50 µM (inactive) throughout.

For the compound `C#CC[N+](C)(CC#C)CC#C`, the GI50 in [1], in [2], in test [3], in test [17], in test [4] and in test [5] was > 100 µM (inactive) throughout. Further, the GI50 in test [6], in [18], in test [8], in [9], in test [10] and in test [11] was > 100 µM (inactive) each time. In addition, the GI50 in test [12], in test [13], in [14], in [15] and in test [16] was > 100 µM (inactive) each time.

Regarding `CCCCCCCCCCCCCCCCCCOCC(C[N+]1(C)CCC(O)CC1)OCC` (configuration not stated), the GI50 in test [1] was 5.65 µM (inactive); in [2], 3.39 µM (inactive); in test [3] it was 2.92 µM (inactive); in test [4], 4.23 µM (inactive); in [5], 5.87 µM (inactive); in [6] it was 3.37 µM (inactive). For the same compound, the GI50 in test [7] is 11.7 µM (inactive); in test [8], 5.48 µM (inactive); in test [10] it was 5.71 µM (inactive); in [11], 9.51 µM (inactive); in test [12], 3.95 µM (inactive); in test [13], 3.38 µM (inactive). In addition, the GI50 in test [14] is 5.27 µM (inactive); in test [15] it was 4.17 µM (inactive).

On to `NC1=NN(c2ccccc2)C(=O)C1C(=O)C(=O)Nc1cccc(C(F)(F)F)c1` (configuration not stated), for which the GI50 in test [1], in test [2], in [3], in [17], in test [4] and in test [5] was > 100 µM (inactive) in each case. Also, the GI50 in test [6], in [7], in test [8], in test [9], in [10] and in test [11] was > 100 µM (inactive) in each case. Also, the GI50 in test [13] is > 100 µM (inactive); in test [14], > 100 µM (inactive); in test [15], 86.1 µM (inactive); in [16], > 100 µM (inactive).

Regarding `CCc1ccccc1-n1c2nc(=O)n(C)c(=O)c-2nc2ccccc21`, the GI50 in test [1] is 20 µM (inactive); in [2], 11 µM (inactive); in [3] it was 40.2 µM (inactive); in test [4], 29.6 µM (inactive); in [5], 8.24 µM (inactive); in [6] it was 3.63 µM (inactive). In addition, the GI50 is 15.9 µM (inactive) in test [7]; 13.7 µM (inactive) in [18]; 13.8 µM (inactive) in [8]; 3.92 µM (inactive) in test [9]; 13.6 µM (inactive) in test [10]; 6.59 µM (inactive) in test [11]. For the same compound, the GI50 was 14.2 µM (inactive) in test [12]; 2.77 µM (inactive) in test [13]; 2.2 µM (inactive) in test [14]; 12.1 µM (inactive) in [15]; 20 µM (inactive) in test [16].

Regarding `CC1(C)CC(C2CC(C)(C)CC(C)(C)[C@H]2O)[C@@H](O)C(C)(C)C1` (some centres not stated), the GI50 in test [2] is > 100 µM (inactive); in test [3], > 100 µM (inactive); in [17] it was > 100 µM (inactive); in test [4] it was > 10 µM (inactive); in test [5] it was > 100 µM (inactive); in test [6], > 100 µM (inactive). Moreover, the GI50 in test [8], in [9], in test [10], in test [11], in test [13] and in test [14] was > 100 µM (inactive) each time. Besides, in test [15], the GI50 is > 100 µM (inactive).

Regarding `O=S(=O)(/C=C/CS(=O)(=O)c1ccccc1)c1ccccc1`, the GI50 in test [2] is 26.9 µM (inactive); in test [3], 29.3 µM (inactive); in [17], 17.3 µM (inactive); in test [4], 24.9 µM (inactive); in test [5] it was 22.4 µM (inactive); in [6], 37.8 µM (inactive). Besides, the GI50 in [7] is 27.5 µM (inactive); in test [18], 26.9 µM (inactive); in test [8], 20.9 µM (inactive); in test [9] it was 53.3 µM (inactive); in [11] it was 23 µM (inactive); in test [12], 36.1 µM (inactive). Besides, the GI50 is 36.1 µM (inactive) in [13], 21.5 µM (inactive) in test [14], 25.3 µM (inactive) in test [15] and 47.1 µM (inactive) in test [16].

`Cc1nc(Nc2ccccc2)sc1C(=O)CC(=O)C(=O)Nc1c(C(C)C)cccc1C(C)C`: the GI50 is 66.2 µM (inactive) in test [1]; > 100 µM (inactive) in test [2]; > 100 µM (inactive) in [3]; 43.2 µM (inactive) in test [17]; 97.7 µM (inactive) in test [4]; > 100 µM (inactive) in test [5]. For the same compound, the GI50 in test [6] is > 100 µM (inactive); in [18], 42 µM (inactive); in [8], > 100 µM (inactive); in test [9] it was 95.1 µM (inactive); in [10] it was > 100 µM (inactive); in test [11], > 100 µM (inactive). The GI50 in test [13] is > 100 µM (inactive); in test [14] it was 55.6 µM (inactive); in test [15], 83 µM (inactive); in test [16], > 100 µM (inactive).

In the case of `Cc1ccc(C2=C(c3ccccc3)C(O)(c3ccc(C)cc3)C(c3ccccc3)=C2c2ccc(C)cc2)cc1`, the GI50 was 99.5 µM (inactive) in [1]; > 100 µM (inactive) in test [2]; > 100 µM (inactive) in test [3]; > 100 µM (inactive) in [17]; > 100 µM (inactive) in test [4]; > 100 µM (inactive) in [5]. Further, the GI50 is > 100 µM (inactive) in test [7]; > 100 µM (inactive) in test [8]; > 100 µM (inactive) in test [9]; 82 µM (inactive) in [11]; > 100 µM (inactive) in [13]; > 100 µM (inactive) in test [14]. The GI50 in test [15] and in test [16] was > 100 µM (inactive) each time.

Consider `Cc1cc(NS(=O)(=O)c2ccc(Nc3c4ccccc4nc4c(C(=O)NCCN(C)C)ccc(Cl)c34)cc2)no1`, for which the GI50 in test [2] was 2.15 µM (inactive); in [17], 1.48 µM (inactive); in test [4] it was 4.57 µM (inactive); in test [5], 3.66 µM (inactive); in [6], 2.86 µM (inactive); in test [18], 7.6 µM (inactive). The GI50 in test [8] is 1.92 µM (inactive); in [9] it was 2.43 µM (inactive); in test [10], 0.54 µM (active); in test [11], 5.25 µM (inactive); in test [12] it was 2.76 µM (inactive); in [13], 2.45 µM (inactive). For the same compound, the GI50 was 2.35 µM (inactive) in test [14], 2.99 µM (inactive) in test [15] and 15.1 µM (inactive) in test [16].

Values taken from ChEMBL document CHEMBL1201862, “PubChem BioAssay data set” (2004).
